Reference: PubChem BioAssay (NCI)
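Cultured in 96-well plates, cells were exposed to test compound for 48 hours across five concentrations. GI50 marks 50% less growth. TGI: concentration producing complete growth inhibition.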

Experiments:
Test in all cases: DTP human tumour cell line panel, 48 h
[1] = test system: NCI-H226 lung
[2] = test system: NCI-H522 lung
[3] = test system: SK-MEL-5 melanoma
[4] = test system: SN12C renal
[5] = test system: MDA-MB-435
[6] = test system: U251 CNS
[7] = test system: HCT-15 colon
[8] = test system: PC-3 prostate
[9] = test system: OVCAR-3 ovarian
[10] = test system: RPMI-8226 leukemia
[11] = test system: HS 578T breast
[12] = test system: HL-60(TB) leukemia
[13] = test system: M14 melanoma
[14] = test system: OVCAR-4 ovarian
[15] = test system: OVCAR-5 ovarian
[16] = test system: BT-549 breast
[17] = test system: ACHN renal
[18] = test system: NCI/ADR-RES ovarian
[19] = test system: CCRF-CEM leukemia
[20] = test system: SR leukemia
[21] = test system: NCI-H23 lung
[22] = test system: SK-MEL-28 melanoma
[23] = test system: K-562 leukemia
[24] = test system: UACC-257 melanoma
[25] = test system: TK-10 renal
[26] = test system: MALME-3M melanoma
[27] = test system: HCT-116 colon
[28] = test system: MOLT-4 leukemia
[29] = test system: LOX IMVI melanoma
[30] = test system: SK-OV-3 ovarian
[31] = test system: SW-620 colon
[32] = test system: MDA-MB-231 breast
[33] = test system: A549 NSCLC
[34] = test system: HCC-2998 colon
[35] = test system: SNB-19 CNS
[36] = test system: SK-MEL-2 melanoma
[37] = test system: DU-145 prostate
[38] = test system: SF-268 CNS
[39] = test system: A498 renal
[40] = test system: EKVX NSCLC
[41] = test system: MCF7 breast
[42] = test system: SF-295 CNS
[43] = test system: CAKI-1 renal
[44] = test system: COLO 205 colon
[45] = test system: IGROV1 ovarian
[46] = test system: UO-31 renal
[47] = test system: NCI-H460 lung
[48] = test system: UACC-62 melanoma
[49] = test system: SF-539 CNS
[50] = test system: HOP-92 NSCLC
[51] = test system: T-47D breast
[52] = test system: RXF 393 renal
[53] = test system: 786-0 renal
[54] = test system: HT29 colon
[55] = test system: KM12 colon
[56] = test system: OVCAR-8 ovarian
[57] = test system: HOP-62 NSCLC
[58] = test system: SNB-75 CNS

## CC(=O)OC1CN2CCC1CC2 (stereo not drawn)
[1]
  TGI: > 100 µM
[2]
  TGI: > 100 µM
[3]
  TGI: > 100 µM
[4]
  TGI: > 100 µM
[5]
  TGI: > 100 µM
[6]
  TGI: > 100 µM
[7]
  TGI: > 100 µM
[8]
  TGI: > 100 µM
[9]
  TGI: > 100 µM
[10]
  TGI: > 100 µM
[11]
  TGI: > 100 µM
[12]
  TGI: > 100 µM
[13]
  TGI: > 100 µM
[14]
  TGI: > 100 µM
[15]
  TGI: > 100 µM
[16]
  TGI: > 100 µM
[17]
  TGI: > 100 µM
[18]
  TGI: > 100 µM
[19]
  TGI: > 100 µM
[20]
  TGI: > 100 µM
[21]
  TGI: > 100 µM
[22]
  TGI: > 100 µM
[23]
  TGI: > 100 µM
[24]
  TGI: > 100 µM
[25]
  TGI: > 100 µM
[26]
  TGI: > 100 µM
[27]
  TGI: > 100 µM
[28]
  TGI: > 100 µM
[29]
  TGI: > 100 µM
[30]
  TGI: > 100 µM
[31]
  TGI: > 100 µM
[32]
  TGI: > 100 µM
[33]
  TGI: > 100 µM
[34]
  TGI: > 100 µM
[35]
  TGI: > 100 µM
[36]
  TGI: > 100 µM
[37]
  TGI: > 100 µM
[38]
  TGI: > 100 µM
[39]
  TGI: > 100 µM
[40]
  TGI: > 100 µM
[41]
  TGI: > 100 µM
[42]
  TGI: > 100 µM
[43]
  TGI: > 100 µM
[44]
  TGI: > 100 µM
[45]
  TGI: > 100 µM
[46]
  TGI: > 100 µM
[47]
  TGI: > 100 µM
[48]
  TGI: > 100 µM
[49]
  TGI: > 100 µM
[50]
  TGI: > 100 µM
[51]
  TGI: > 100 µM
[52]
  TGI: > 100 µM
[53]
  TGI: > 100 µM
[54]
  TGI: > 100 µM
[55]
  TGI: > 100 µM
[56]
  TGI: > 100 µM
[57]
  TGI: > 100 µM

## Oc1c(Br)cc(Br)c2ccc(Cn3cc(-c4ccc(C(F)(F)F)cc4)nn3)nc12
[1]
  GI50: 4.46 µM
  TGI: 19.7 µM
[2]
  GI50: 1.08 µM
  TGI: 3.01 µM
[3]
  GI50: 3.16 µM
  TGI: 11.7 µM
[4]
  GI50: 3.53 µM
  TGI: 14.4 µM
[5]
  GI50: 1.85 µM
  TGI: 4.39 µM
[6]
  GI50: 4.42 µM
  TGI: 16.5 µM
[7]
  GI50: 1.56 µM
  TGI: 3.46 µM
[8]
  GI50: 2.9 µM
  TGI: 12.4 µM
[9]
  GI50: 1.42 µM
  TGI: 2.8 µM
[10]
  GI50: 1.59 µM
  TGI: 5.6 µM
[11]
  GI50: 3.03 µM
  TGI: 10.3 µM
[12]
  GI50: 674 nM
  TGI: 3.06 µM
[13]
  GI50: 1810 nM
  TGI: 4.44 µM
[14]
  GI50: 1.45 µM
  TGI: 3.11 µM
[15]
  GI50: 3.45 µM
  TGI: 12.9 µM
[16]
  GI50: 2.16 µM
  TGI: 5.98 µM
[17]
  GI50: 1.38 µM
  TGI: 2.7 µM
[18]
  GI50: 21.1 µM
  TGI: 71.7 µM
[20]
  GI50: 0.794 µM
  TGI: 5.86 µM
[21]
  GI50: 2.31 µM
  TGI: 6.18 µM
[22]
  GI50: 1.7 µM
  TGI: 3.44 µM
[23]
  GI50: 0.41 µM
  TGI: 11.8 µM
[24]
  GI50: 1.31 µM
  TGI: 3.19 µM
[25]
  GI50: 1.82 µM
  TGI: 3.79 µM
[26]
  GI50: 1.65 µM
  TGI: 3.67 µM
[27]
  GI50: 0.586 µM
  TGI: 2.05 µM
[28]
  GI50: 1.01 µM
  TGI: 5.76 µM
[29]
  GI50: 0.379 µM
  TGI: 1.52 µM
[30]
  GI50: 17.8 µM
  TGI: 32.1 µM
[31]
  GI50: 0.548 µM
  TGI: 2.13 µM
[32]
  GI50: 2.06 µM
  TGI: 5.02 µM
[33]
  GI50: 16.6 µM
  TGI: 34.3 µM
[34]
  GI50: 8.87 µM
  TGI: 22.6 µM
[35]
  GI50: 11.1 µM
  TGI: 24.5 µM
[36]
  GI50: 2.73 µM
  TGI: 9.67 µM
[37]
  GI50: 1.67 µM
  TGI: 3.19 µM
[38]
  GI50: 4.7 µM
  TGI: 17.9 µM
[39]
  GI50: 3.36 µM
  TGI: 13.8 µM
[40]
  GI50: 7.43 µM
  TGI: 20.9 µM
[41]
  GI50: 0.532 µM
  TGI: 2.36 µM
[42]
  GI50: 17.2 µM
  TGI: 31.2 µM
[43]
  GI50: 1.27 µM
  TGI: 2.69 µM
[44]
  GI50: 1.28 µM
  TGI: 2.93 µM
[45]
  GI50: 1.49 µM
  TGI: 3.25 µM
[58]
  GI50: 1.49 µM
  TGI: 8.04 µM
[46]
  GI50: 1.68 µM
  TGI: 5.03 µM
[47]
  GI50: 19 µM
  TGI: 37.3 µM
[48]
  GI50: 3.4 µM
  TGI: 14.4 µM
[49]
  GI50: 1.59 µM
  TGI: 3.01 µM
[50]
  GI50: 1.52 µM
  TGI: 4.4 µM
[51]
  GI50: 1.72 µM
  TGI: 5.84 µM
[52]
  GI50: 0.662 µM
  TGI: 2.17 µM
[53]
  GI50: 1.92 µM
  TGI: 4.54 µM
[54]
  GI50: 1.92 µM
  TGI: 4.55 µM
[55]
  GI50: 8.84 µM
  TGI: 21.4 µM
[56]
  GI50: 2.62 µM
  TGI: 7.76 µM
[57]
  GI50: 15.6 µM
  TGI: 30.8 µM

## OCCCCC#Cc1ccccc1C#Cc1ccccn1
[1]
  GI50: 31.3 µM
  TGI: > 100 µM
[2]
  GI50: 22.2 µM
  TGI: 56 µM
[3]
  GI50: 19.1 µM
  TGI: 41.4 µM
[4]
  GI50: 32.1 µM
  TGI: > 100 µM
[5]
  GI50: 25.1 µM
  TGI: 79.4 µM
[6]
  GI50: 31.2 µM
  TGI: > 100 µM
[7]
  GI50: 29.8 µM
  TGI: > 100 µM
[8]
  GI50: 24.6 µM
  TGI: 73.9 µM
[9]
  GI50: 26.1 µM
  TGI: 77.3 µM
[10]
  GI50: 16.4 µM
  TGI: 37.4 µM
[11]
  GI50: 25.6 µM
  TGI: 88.3 µM
[14]
  GI50: 30.3 µM
  TGI: > 100 µM
[15]
  GI50: > 100 µM
  TGI: > 100 µM
[16]
  GI50: 15.8 µM
  TGI: 47.4 µM
[17]
  GI50: 31.8 µM
  TGI: > 100 µM
[18]
  GI50: 27.3 µM
  TGI: 77.4 µM
[19]
  GI50: 31.4 µM
  TGI: > 100 µM
[20]
  GI50: 25.5 µM
  TGI: 96.2 µM
[21]
  GI50: 25.2 µM
  TGI: > 100 µM
[22]
  GI50: 31 µM
  TGI: > 100 µM
[23]
  GI50: 29 µM
  TGI: > 100 µM
[24]
  GI50: 28.8 µM
  TGI: 87.2 µM
[25]
  GI50: 61 µM
  TGI: > 100 µM
[26]
  GI50: 27.1 µM
  TGI: > 100 µM
[27]
  GI50: 30.8 µM
  TGI: > 100 µM
[28]
  GI50: 21.4 µM
  TGI: > 100 µM
[29]
  GI50: 27.7 µM
  TGI: > 100 µM
[30]
  GI50: > 100 µM
  TGI: > 100 µM
[31]
  GI50: 45.7 µM
  TGI: > 100 µM
[32]
  GI50: 21 µM
  TGI: 64.9 µM
[33]
  GI50: 33.6 µM
  TGI: > 100 µM
[34]
  GI50: 26.4 µM
  TGI: 72.9 µM
[35]
  GI50: 42.1 µM
  TGI: > 100 µM
[36]
  GI50: 41.6 µM
  TGI: > 100 µM
[37]
  GI50: 9.78 µM
  TGI: 74.6 µM
[38]
  GI50: 29.8 µM
  TGI: > 100 µM
[39]
  GI50: 8.99 µM
  TGI: 49.7 µM
[40]
  GI50: 27.7 µM
  TGI: 67 µM
[41]
  GI50: 37.8 µM
  TGI: > 100 µM
[42]
  GI50: 21.8 µM
  TGI: 65.2 µM
[43]
  GI50: 28.6 µM
  TGI: > 100 µM
[44]
  GI50: 31.1 µM
  TGI: > 100 µM
[45]
  GI50: 27.2 µM
  TGI: > 100 µM
[58]
  GI50: 14.9 µM
  TGI: 51.5 µM
[46]
  GI50: 32.3 µM
  TGI: > 100 µM
[47]
  GI50: 24.8 µM
  TGI: 76.4 µM
[48]
  GI50: 23.1 µM
  TGI: > 100 µM
[49]
  GI50: 17.8 µM
  TGI: 42.7 µM
[50]
  GI50: 26.6 µM
  TGI: 94.6 µM
[51]
  GI50: 15.9 µM
  TGI: 80.6 µM
[52]
  GI50: 25 µM
  TGI: 62.3 µM
[53]
  GI50: 38.3 µM
  TGI: > 100 µM
[54]
  GI50: 26.1 µM
  TGI: > 100 µM
[55]
  GI50: 29.7 µM
  TGI: > 100 µM
[56]
  GI50: 32.4 µM
  TGI: > 100 µM
[57]
  GI50: 29.4 µM
  TGI: > 100 µM
